Tested on: Plasmodium yoelii (17x) sporozoites
Assay: Sporozoite induced test in mice
Type: in vivo
Conditions: P. yoelii; for Number of Mice Cured: oral
Method: B. Antimalarial Activities: (a). In Vitro Antimalarial Studies. The in vitro assays were conducted by using a modification of the semiautomated microdilution technique of Desjardins et al and Chulay et al.. Four P. falciparum malaria parasite clones, from CDC Indochina III (W-2), CDC Sierra Leone I (D-6), Southeast Asia Isolates (TM91C235) and RCS (Isolates from Brazil) were utilized in susceptibility testing. They were derived by direct visualization and micromanipulation from patient isolates. The W-2 clone is susceptible to mefloquine but resistant to chloroquine, sulfadoxine, pyrimethamine, and quinine, whereas the D-6 clone is naturally resistant to mefloquine but susceptible to chloroquine, sulfadoxine, pyrimethamine and quinine. Test compounds were initially dissolved in DMSO and diluted 400 fold in RPMI 1640 culture medium supplemented with 25 mM Hepes, 32 mM NaHCO3 and 10% Albumax I (Gibco BRL, Grand Island, N.Y.). These solutions were subsequently serially diluted two-fold with a Biomek 1000 (Beckman, Fullerton, Calif.) over 11 different concentrations. The parasites were exposed to serial dilutions of each compound for 48 hrs and incubated at 37° C. with 5% O2, 5% CO2 and 90% N2 prior to the addition of [^3H]hypoxanthine. After a further incubation of 18 hrs, parasite DNA was harvested from each microtiter well using Packard Filtermate 196 Harvester (Meriden, Conn.) onto glass filters. Uptake of [^3H]hypoxanthine was measured with a Packard Topcount Scintillation. Concentration-response data were analyzed by a non-linear regression logistic dose response model and the IC50 values (50% inhibitory concentrations) for each compound were calculated. (Table 3). (b). In Vivo Antimalarial Studies against P. berghei in mice: The in vivo efficacy of the artelinic acid analogs were determined in a modified Thompson test. This test measures the survivability of mice and parasitemia clearance following administration of drug on days 3-5 post infection. In brief, 5×10^6 P. berghei-infected erythrocytes (KBG-173 strain) were inoculated intraperitoneally to female mice that weighed 24-30 g. By day three post-infection, parasitemia ranged from 1.0-3.7%. Each drug, dissolved in 5% sodium bicarbonate, was administered PO twice daily from day 3-5 post-infection. Total doses for each drug ranged from 1.5-384 mg/kg with 8 mice included in each dosage group. The percent suppression of parasitemia in the treated mice compared to the untreated controls was determined for each test compound; the SD-50 (fifty percent suppression dose) and SD-90 were determined from a non-linear regression logistic dose response fit at day 6 parasitemia data. Survival of mice to day 60 post-infection was considered a cure (C). Compounds were considered active (A) when the survival time of the treated mice was greater than twice the control mice, i.e., 12-14 day (Table 4-5). (c). Sporozoite Induced Test Each compound is ground with a mortar & pestle and suspended in 0.5% hydroxyethylcellulose—0.1% Tween 80 for compounds to be administered PO and those given SC are suspended in peanut oil. Each compound is prepared at 3 different dose levels as requested by WRAIR. Compounds are administered either PO or SC to mice once 4 hr before inoculation of sporozoites. Four-week-old male CD-1 mice, purchased from Charles River and weighing 16-17 g, are placed 5 per cage and allowed to acclimate for 4 days before being treated and then inoculated with sporozoites. They are fed food and water ad-lib and maintained at 76° F. with 12 hr light and 12 hr darkness. The cages and water bottles are changed biweekly. The mice are weighed on Days 0, 3 and 6 then biweekly when blood films are taken. Plasmodium yoelii (17×) is used to infect mice that will be used to infect the mosquitoes. […] Whole body weights are taken on Day 0 and Day 6 then twice a week for 31 days. A blood film is taken on Day 5 and then twice a week for 31 days. Mice loosing >20% of their body weight will be sacrificed. […]

CC(=O)N(C(C)=O)c1nc(N(C(C)=O)C(C)=O)c2c(ccc3c2ccn3Cc2ccccc2C(F)(F)F)n1 [Compound 3e, 1,3-Bis(diacetylamino)-7-(2-trifluoromethyl)benzyl-7H-pyrrolo[3,2-f]quinazoline]
mice cured (dose groups from 0.625 to 40 mg/kg): 100%
parasitemia formation in sporozoite challenged mouse (doses from 0.65 to 40 mg/kg given orally for 3 consecutive days): completely prevented parasitemia formation
Number of Mice Cured (0.15625 mg/kg): 4/5
Number of Mice Cured (0.3125 mg/kg): 4/5
Number of Mice Cured (0.625 mg/kg): 5/5
Number of Mice Cured (2.5 mg/kg): 5/5
Number of Mice Cured (10 mg/kg): 5/5
Number of Mice Cured (40 mg/kg): 5/5

Source: patent US7253177B2, “Synthesis and antimalarial activity of pyrrolo[3,2-f]quinazoline-1,3-diamine derivatives” (United States of America as Represented by the Secretary of …, priority 2004, dated 2007)
